# From paper PMC11124362, “Metabolism, Disposition, Excretion, and Potential Transporter Inhibition of 7–16, an Improving 5-HT2A Receptor Antagonist and Inverse Agonist for Parkinson’s Disease” (Molecules, 2024)
# Experiments:
# [1] = Metabolite identification in mouse liver microsomes; format: in vitro ADME; conditions: 7–16 10 µM, liver microsomes 1 mg/mL, NADPH, 37 °C, 60 min
# Description: (§1) In accordance with our previous methods, 7–16 (10 µM) was incubated with mouse, rat, dog, monkey, and human liver microsome proteins (1 mg/mL) in 100 mM sodium phosphate buffer (pH 7.4) containing 10 mM magnesium chloride and 2 mM NADPH at 37 °C for 60 min. All samples were prepared in duplicates. The reactions were terminated by adding three times the volume of ice-cold acetonitrile (600 µL) and stored at −20 °C until analysis. Control samples without NADPH and 0-time point samples were included. As a positive control, testosterone (10 µM), which was metabolized to produce the hydroxylation metabolite, was used as a substrate to confirm the activity of the incubation system.
# (§2) After pre-treatments, the samples were analyzed by an Acquity UPLC system coupled with a diode array detector (Waters Corporation, Milford, MA, USA) and Q Exactive HRMS (Thermo Electron Corporation, Waltham, MA, USA) (UPLC–UV-Q Exactive HRMS). Samples were separated on an Agilent XDB C18 column (150 × 2.1 mm i.d. 3.5 μm, Agilent Corporation, Santa Clara, CA, USA) at 40 °C by gradient elution with water and acetonitrile containing 0.1% formic acid. The flow rate was 0.40 mL/min. The ultraviolet (UV) detection wavelength was 286 nm. Q Exactive HRMS were operated at positive ion mode (3.5 kV) using a heating electrospray ionization source. Mass calibration was required to be performed before conducting experiments so as to achieve the best mass accuracy and mass calibration should be performed every five days. The metabolites were detected by full MS/dd-MS^2 analysis from m/z 100 to m/z 1000. The resolution of the first-class scan and second-class scan was 70,000 and 17,500, respectively. Thermo Compound Discover software was used to identify expected and unknown metabolites, and we finally proposed the 7–16 metabolic pathways based on the deduced metabolites and relevant drug biotransformation knowledge.
# [2] = Metabolite identification in rat liver microsomes; format: in vitro ADME; conditions: 7–16 10 µM, liver microsomes 1 mg/mL, NADPH, 37 °C, 60 min
# Description: as §1, §2
# [3] = Metabolite identification in dog liver microsomes; format: in vitro ADME; conditions: 7–16 10 µM, liver microsomes 1 mg/mL, NADPH, 37 °C, 60 min
# Description: as §1, §2
# [4] = Excretion and metabolite identification in bile duct cannulated (BDC) rats; format: in vivo, Sprague-Dawley rats
# Description: In the urine and feces excretion experiment, six rats (3 females and 3 males) were administered a single oral dose of [^14C]7–16 at 3 mg/100 µCi/kg. Urine, feces and cage washing/cleaning solution samples were collected from 0 to 168 h following drug administration at the following time intervals: 0–8, 8–24 h (0–24 h for feces), 24–48, 48–72, 72–96, 96–120, 120–144, and 144–168 h. In the biliary excretion experiment, 8 rats using a bile duct cannula (BDC) (4 females and 4 males) were administered a single oral dose of [^14C]7–16 at 3 mg/100 µCi/kg. Bile, urine, feces, and cage washing solution were collected from before and 0–72 h after oral administration at the following time intervals: 0–4, 4–8 (urine 0–8), 8–24 (feces 0–24), 24–48, and 48–72 h. All samples were collected and refrigerated at −20 °C until determination of the radioactive concentrations by liquid scintillation counter (Perkin Elmer Corporation, Waltham, MA, USA). Urine, feces, and bile samples at each time period were mixed by equal percentages of either volume or weight. After the mixed samples were treated, the radio-profiles and metabolite identification in the bile, urine, and feces samples were carried out by LC-RAM and UPLC-Q Exactive HRMS, and the TRA% of each metabolite in plasma and the percentage of dose (dose%) of each compound in urine, feces, and bile samples were calculated.
# CYP1A2 = assay: Metabolic phenotype by rhCYP isozymes, CYP1A2; format: in vitro ADME, human; conditions: 7–16 1 µM
# Description: (§3) Based on the result of metabolite identification, two metabolites were selected as targets for metabolic phenotyping analysis. Seven CYP isozymes (CYP1A2, CYP2B6, CYP2C8, CYP2C9, CYP2C19, CYP2D6, and CYP3A4) were investigated using the rhCYP isozymes method. In brief, 7–16 (1 µΜ) was incubated with each rhCYP isozyme ([…]) in 100 mM sodium phosphate buffer (pH 7.4) containing 3 mM magnesium chloride. After 10 min of preincubation at 37 °C, the reactions were initiated by adding NADPH (1 mM) and then incubated at 37 °C in a shaking water bath for 0, 5, 15, and 30 min. The specific substrates of each rhCYP isozyme were incubated as the above method to confirm the activity of the incubation system. The samples were prepared in triplicates. The reactions were terminated by adding three times the volume of ice-cold acetonitrile (600 µL) and stored at −20 °C until analysis. After pre-treatment, the samples were determined by the LC–MS/MS (Shimadzu Exion-Triple Quad 4500) method. The relative contribution rate of each isozyme to the metabolism of 7–16 was evaluated in HLMs using the following formula: Contributionx% = Vx × Abundancex (pmol/mg protein)/Σ(Vi × Abundancei). Vx (µL/min/pmol) is the production rate of metabolites for each rhCYP isozyme.
# CYP2B6 = assay: Metabolic phenotype by rhCYP isozymes, CYP2B6; format: in vitro ADME, human; conditions: 7–16 1 µM
# Description: as §3
# 5-HT2A receptor = target: 5-HT2A receptor; parameters: method as in PMID 35279606; conditions: cited from earlier work
# hERG = system: hERG; parameters: method as in PMID 35279606; conditions: versus pimavanserin; cited from earlier work
# 5-HT2A receptors = system: 5-HT2A receptors; parameters: method as in PMID 35279606; conditions: head twitches test in rats; cited from earlier work
# CYP2C9 = system: CYP2C9; parameters: method as in PMID 35279606; conditions: previous study; read-out: CYP2C9 inhibition IC50; cited from earlier work
# CYP2C19 = system: CYP2C19; parameters: method as in PMID 35279606; conditions: previous study; read-out: CYP2C19 inhibition IC50; cited from earlier work
# CYP3A4 = system: CYP3A4; parameters: method as in PMID 35279606; conditions: previous study; read-out: CYP3A4 inhibition IC50; cited from earlier work
smiles,measurement,setting,value
"CN1CCC(N(Cc2ccc(F)cn2)C(=O)NCc2ccc(OCC(F)(F)F)cc2)CC1 [7–16, 3-(4-(2,2,2-trifluoroethoxy)benzyl)-1-((5-fluoropyridin-2-yl)methyl)-1-(1-methylpiperidin-4-yl) urea]","Relative Abundance, UV Area% Mouse",[1],91.3%
same,"Relative Abundance, UV Area% Rat",[2],86.1%
same,"Relative Abundance, UV Area% Dog",[3],77.2%
same,"recovery of radioactivity in bile, percent of dose","[4]; BDC rats, 0–72 h",18.4%
same,"recovery of radioactivity in cage rinse/wash, percent of dose","[4]; BDC rats, 0–72 h",3.42%
same,"recovery of radioactivity in feces, percent of dose","[4]; BDC rats, 0–72 h",20.2%
same,"recovery of radioactivity in urine, percent of dose","[4]; BDC rats, 0–72 h",56.3%
same,"total recovery of radioactivity, percent of dose","[4]; BDC rats, 0–72 h, oral 3 mg/100 µCi/kg, mean of both sexes",98.3%
same,"recovery of radioactivity within the first 24 h, percent of dose","[4]; BDC rats, first 24 h post-administration",82.8%
same,absorption rate,"[4]; calculated from dose excreted in bile and urine of BDC rats, oral",at least 74.7%
same,relative contribution of CYP1A2 to metabolism,CYP1A2,little or no contribution
same,relative contribution of CYP2B6 to metabolism,CYP2B6,little or no contribution
same,IC50,"5-HT2A receptor; previous study, read-out: 5-HT2A inverse agonist activity IC50",0.0021 µM
same,fold higher inverse agonist activity than pimavanserin,5-HT2A receptor; versus pimavanserin,23 fold
same,fold weaker hERG inhibitory activity than pimavanserin,hERG,2 fold
same,potency for blocking 5-HT2A receptors relative to pimavanserin,5-HT2A receptors,at least four times more potent than pimavanserin
same,IC50,CYP2C9,> 62.9 µM
same,IC50,CYP2C19,> 62.9 µM
same,IC50,CYP3A4,> 62.9 µM
